Source: patent publication US6534082B1, “Method of treating disorders of the eye” (Duke University, priority 1994, dated 2003)

System: enucleated cow eyes
Assay: Constant pressure perfusion of enucleated cow eyes, outflow facility
Conditions: 5 h perfusion, 22° centigrade, 15 mm of mercury; for increase in outflow facility at the end of the experiment versus initial baseline: 0.125 mM drug in perfusion medium, ± SEM; for increase in outflow facility at the end of the experiment versus initial baseline, drug plus cysteine: 0.125 mM drug plus 0.625 mM cysteine
Protocol: Enunciated cow eyes were obtained from a local commercial abattoir, immediately chilled, and then perfused within twenty-four hours using a standard constant pressure perfusion technique. Pairs of eyes from a single animal were used for each experiment and subjected to the same manipulation except for the experimental drug in the experimental eye of perfusion. Briefly, a 5 mm central cornea trephine button was removed from each eye. Radial iridotomy was performed to prevent artificial deepening of the anterior chamber during perfusion. The anterior chamber was then gently irrigated with perfusion medium to remove pigment which might have been liberated by the iridotomy. A Grant stainless steel fitting was then placed into the cornea and connected by twenty-three gauge polyethylene tubing to the fluid reservoir of the perfusion apparatus.
The perfusion medium was Dulbecco's phosphate-buffered salt solution (PBS) (Grand Island Biological Company, Grand Island, N.Y.) with added 5.5 mM glucose. All solutions were filtered through a 0.2 μm Nuclepore filter.
The initial flow value was determined after the eyes had been perfused for one hour which allowed sufficient time to achieve adequate stability. The corneal fitting was removed, and the anterior chamber was gently emptied and refilled with fresh perfusion medium with added drug or sham solution. The corneal fitting was replaced and the eye was perfused for an additional five hours. The outflow facility (flow/pressure) was calculated at the end of the experiment and compared to the initial baseline after the initial hour (pre-drug, both eyes received control perfusion medium for the first hour). The change in the experimental eye was compared to the change in the fellow control eye by a paired T-test. Control eyes were treated similarly except that an osmotically equivalent amount of sodium chloride was added to the perfusion medium in place of the drug. All perfusions were performed at 22° centigrade and the perfusion pressure was 15 mm of mercury.

CC1(c2ccccc2)Cc2cc(OCC(=O)O)c(Cl)c(Cl)c2C1=O (stereo not shown) [indacrinone]
increase in outflow facility at the end of the experiment versus initial baseline: 113%±24% | increase in outflow facility at the end of the experiment versus initial baseline, drug plus cysteine: 91%±8

O=C(O)COc1ccc(C(=O)c2cccs2)c(Cl)c1Cl [ticrynafen]
increase in outflow facility at the end of the experiment versus initial baseline: 102%±23% | increase in outflow facility at the end of the experiment versus initial baseline, drug plus cysteine: 80%±9%
